Results: patent US20080063643A1, “Peptide Derived From Hepatitis C Virus” (priority 2003, published 2008)

Key:
[1] = tested on: peptide-specific IgG in the serum; assay: ELISA of peptide-specific IgG in sera of HCV patients and healthy donors (Example 1); type: binding, human
Procedure, shortened: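 Sera from 12 HCV patients and 10 healthy donors, diluted 1:100–1:400, tested by ELISA on plates coated with DSS-crosslinked HLA-A2/A24-motif HCV 1b peptides (20 µg/well); HIV peptide as negative control. Incubated 2 h at 37 °C; detection via rabbit anti-human IgG, HRP-polymer anti-rabbit, TMB. Cutoff = healthy-donor mean OD ± 3 SD.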

peptide-reactive IgG = assay: ELISA of anti-C-35 and anti-NS5A-2132 antibody in cohort study sera of 1995 and 2002; type: binding, human; conditions: serum dilution 100:1
Method: Sera were obtained from 33 patients with a disease associated with HCV in the cohort study conducted between 1995 and 2002. The sera obtained from patients with chronic hepatitis (CH, n=68), liver cirrhosis (LC, n=43) and hepatic cell carcinoma (HCC, n=52) were also used in the analysis. These patients were diagnosed at the time of the first serum sampling by biochemical and histological findings, echography and computed tomography. An anti-HCV antibody was assayed using a chemiluminescence enzyme immunoassay (CLEIA) kit (Lumipulse II HCV, Fujirebio Inc., Tokyo, Japan) or the second generation or the third generation enzyme immunoassay test (SRL, Tokyo, Japan). HCV-RNA in the sera was detected using RT-PCR (SRL, Tokyo, Japan). The HCV genotype was determined by directly sequencing HCV in the sera of the patients by RT-PCR (SRL, Tokyo, Japan). The sera were also obtained from subjects who were not infected with HCV, which include 24 subjects with an autoimmune disease (6 patients with systematic lupus erythematosus, one with Behcet's disease and 17 with atopic dermatitis), 17 cases of hepatitis B virus (HBV) infection (positive for HBV surface antigen), 3 patients having human immunodeficiency virus (HIV) and 10 cases with human T cell leukemia virus type I (HTLV-1) infection.
The level of peptide-specific IgG was measured by an enzyme-linked immunosorbent assay (ELISA). […]

Sequence: YLLPRRGPRL [No. 40]
- IgG antibody reactive to the peptide in the serum of single patients ([1]; representative patients, FIGS. 1 and 2): detected
- Healthy donors (n = 10) Positive % ([1]; share of 10 healthy donors with serum IgG reactive to the peptide, ELISA, cut-off value 1.83): 0%
- HCV patients (n = 12) Positive % ([1]; share of 12 HCV patients with serum IgG reactive to the peptide, ELISA, cut-off value 1.83): 100%
- level of the anti-peptide antibody in 1995 compared with 2002 (peptide-reactive IgG; 33 cohort patients): almost equal
- level of the anti-peptide antibody by group in 2002 (peptide-reactive IgG; CH, LC, HCC, recovered individuals, ASC): high in any of CH, LC, and HCC patients, and it became very low or undetectable in the recovered individuals
